Test results as given in PubChem BioAssay AID330 (DTP/NCI, 2004).
Where “and” joins values, the source holds several entries; their conditions need not be identical. Equal values may be shown once. Toxic doses and inconclusive results are not listed. How the source made its calls: active means survival T/C of 150% or more; inactive means T/C below 125% in these data.

Tested on: P388 leukemia ip, CD2F1 mice, survival T/C
Assay: NCI In Vivo Anticancer Drug Screen. Data for tumor model P388 Leukemia (intraperitoneal) in CD2F1 (CDF1) mice
Conditions: endpoint: median survival time, higher = longer survival
In short: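 Mice carrying the transplanted tumor received test compound or vehicle. Survival was recorded in each group, and the value is the treated-group measurement divided by that of the vehicle-treated control group.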

[1] = dose: 12.5 mg/kg/injection, schedule: Q01DX009 (ip), vehicle: saline with Tween-80
[2] = dose: 25.0 mg/kg/injection, schedule: Q01DX009 (ip), vehicle: saline with Tween-80
[3] = dose: 50.0 mg/kg/injection, schedule: Q01DX009 (ip), vehicle: saline with Tween-80

Measured: T/C

O=C(O)CCN1CCCc2ccccc21
inactive: dose: 100.0 mg/kg/injection, schedule: Q04DX003 (ip), vehicle: other 100 % of control | dose: 200.0 mg/kg/injection, schedule: Q04DX003 (ip), vehicle: other 100 % of control | dose: 400.0 mg/kg/injection, schedule: Q04DX003 (ip), vehicle: other 109 % of control

CCOC(=O)Nc1cc(Cl)c([N+](=O)[O-])c([N+](=O)[O-])n1
inactive: dose: 100.0 mg/kg/injection, schedule: Q04DX002 (ip), vehicle: saline 101 % of control | dose: 200.0 mg/kg/injection, schedule: Q04DX002 (ip), vehicle: saline 103 % of control | dose: 400.0 mg/kg/injection, schedule: Q04DX002 (ip), vehicle: saline 110 % of control

O=C(Nc1ccccc1C(F)(F)F)c1cccc(Cl)c1
inactive: dose: 100.0 mg/kg/injection, schedule: Q04DX003 (ip), vehicle: saline + alcohol 109 % of control | dose: 200.0 mg/kg/injection, schedule: Q04DX003 (ip), vehicle: saline + alcohol 100 % of control | dose: 400.0 mg/kg/injection, schedule: Q04DX003 (ip), vehicle: saline + alcohol 100 % of control

CC1C(=O)OC2C1CCC1(C)CC(Br)C(=O)C(C)C21 (stereo not drawn)
inactive: dose: 100.0 mg/kg/injection, schedule: Q04DX002 (ip), vehicle: saline with Tween-80 102 % of control | dose: 200.0 mg/kg/injection, schedule: Q04DX002 (ip), vehicle: saline with Tween-80 102 % of control and 100 % of control | dose: 400.0 mg/kg/injection, schedule: Q04DX002 (ip), vehicle: saline with Tween-80 104 % of control and 101 % of control

Nc1cc(C(=O)Nc2ccc(C3=NCCN3)cc2)cc(C(=O)Nc2ccc(C3=NCCN3)cc2)c1
active: dose: 32.0 mg/kg/injection, schedule: Q01DX010 (ip), vehicle: saline 168 % of control

CC(C)[Si]1(C(C)C)N([Si](C)(C)F)[Si](C(C)C)(C(C)C)N1[Si](C)(C)F
inactive: dose: 60.0 mg/kg/injection, schedule: Q01DX005 (ip), vehicle: saline 97 % of control | dose: 120.0 mg/kg/injection, schedule: Q01DX005 (ip), vehicle: saline 87 % of control | dose: 240.0 mg/kg/injection, schedule: Q01DX005 (ip), vehicle: saline 100 % of control

C=C(COC(=O)Nc1cc(Cl)ccc1C)C(=O)O
inactive: dose: 50.0 mg/kg/injection, schedule: Q01DX009 (ip), vehicle: Klucel (hydroxypropylcellulose) (HPC) 105 % of control

C[n+]1ccc(Nc2ccc(NC(=O)c3ccc(Nc4cc[n+](C)c5ccc(N)cc45)cc3N)cc2)cc1
active: dose: 1.0 mg/kg/injection, schedule: Q01DX009 (ip), vehicle: saline with Tween-80 157 % of control | dose: 1.33 mg/kg/injection, schedule: Q01DX009 (ip), vehicle: saline with Tween-80 154 % of control | dose: 1.5 mg/kg/injection, schedule: Q01DX009 (ip), vehicle: saline with Tween-80 163 % of control | dose: 2.0 mg/kg/injection, schedule: Q01DX009 (ip), vehicle: saline with Tween-80 200 % of control | dose: 3.0 mg/kg/injection, schedule: Q01DX009 (ip), vehicle: saline with Tween-80 245 % of control | dose: 3.13 mg/kg/injection, schedule: Q01DX009 (ip), vehicle: saline with Tween-80 271 % of control | dose: 4.5 mg/kg/injection, schedule: Q01DX009 (ip), vehicle: saline with Tween-80 257 % of control | dose: 5.0 mg/kg/injection, schedule: Q04DX003 (ip), vehicle: saline with Tween-80 154 % of control | dose: 6.25 mg/kg/injection, schedule: Q01DX009 (ip), vehicle: saline with Tween-80 274 % of control | dose: 7.5 mg/kg/injection, schedule: Q04DX003 (ip), vehicle: saline with Tween-80 163 % of control | [1] 275 % of control
inactive: dose: 0.18 mg/kg/injection, schedule: Q01DX009 (ip), vehicle: saline with Tween-80 111 % of control | dose: 0.27 mg/kg/injection, schedule: Q01DX009 (ip), vehicle: saline with Tween-80 124 % of control | [2] 100 % of control

COc1ccc(-c2cc(=O)c3c(O)cc(O)cc3o2)cc1
inactive: [3] 90 % of control | dose: 100.0 mg/kg/injection, schedule: Q01DX009 (ip), vehicle: saline with Tween-80 90 % of control | dose: 100.0 mg/kg/injection, schedule: Q04DX003 (ip), vehicle: saline with Tween-80 90 % of control | dose: 200.0 mg/kg/injection, schedule: Q01DX009 (ip), vehicle: saline with Tween-80 110 % of control | dose: 200.0 mg/kg/injection, schedule: Q04DX003 (ip), vehicle: saline with Tween-80 90 % of control

CCCCCC/C(CC(SCC)c1ccccc1Cl)=N\NC(N)=O (stereo not drawn)
inactive: dose: 60.0 mg/kg/injection, schedule: Q01DX005 (ip), vehicle: saline + Tween-80 + alcohol 105 % of control | dose: 120.0 mg/kg/injection, schedule: Q01DX005 (ip), vehicle: saline + Tween-80 + alcohol 97 % of control | dose: 240.0 mg/kg/injection, schedule: Q01DX005 (ip), vehicle: saline + Tween-80 + alcohol 100 % of control

CC(C)=CCCC1(C)C=Cc2c(ccc3c(C)noc23)O1 (stereo not drawn)
inactive: dose: 50.0 mg/kg/injection, schedule: Q01DX005 (ip), vehicle: saline with Tween-80 100 % of control | dose: 100.0 mg/kg/injection, schedule: Q01DX005 (ip), vehicle: saline with Tween-80 89 % of control | dose: 200.0 mg/kg/injection, schedule: Q01DX005 (ip), vehicle: saline with Tween-80 110 % of control

N#Cc1c(SCc2ccc(Cl)cc2)nsc1Nc1ccc(Cl)cc1
inactive: [1] 96 % of control | [2] 91 % of control | [3] 92 % of control

COc1cccc2c1C(=O)c1c(O)c3c(c(O)c1C2=O)C[C@@](O)(/C(CO)=N/NC(=O)c1ccc(Cl)c(Cl)c1)C[C@@H]3OC1CC(N)C(O)C(C)O1 (stereo partly drawn)
inactive: dose: 0.12 mg/kg/injection, schedule: Q01DX009 (ip), vehicle: water 116 % of control | dose: 1.56 mg/kg/injection, schedule: Q04DX003 (ip), vehicle: water 108 % of control | dose: 2.0 mg/kg/injection, schedule: Q04DX003 (ip), vehicle: saline 99 % of control and 105 % of control and 118 % of control | dose: 3.13 mg/kg/injection, schedule: Q04DX003 (ip), vehicle: water 104 % of control and 121 % of control | dose: 4.0 mg/kg/injection, schedule: Q04DX003 (ip), vehicle: saline 108 % of control and 116 % of control | dose: 100.0 mg/kg/injection, schedule: Q04DX003 (ip), vehicle: water 124 % of control | dose: 512.0 mg/kg/injection, schedule: Q04DX003 (ip), vehicle: saline 99 % of control | dose: 1024.0 mg/kg/injection, schedule: Q04DX003 (ip), vehicle: saline 90 % of control
active: dose: 1.0 mg/kg/injection, schedule: Q01DX009 (ip), vehicle: water 153 % of control and 172 % of control | dose: 2.0 mg/kg/injection, schedule: Q01DX009 (ip), vehicle: water 154 % of control and 176 % of control | dose: 4.0 mg/kg/injection, schedule: Q01DX009 (ip), vehicle: water 202 % of control and 205 % of control | dose: 6.25 mg/kg/injection, schedule: Q04DX003 (ip), vehicle: water 155 % of control | dose: 25.0 mg/kg/injection, schedule: Q04DX003 (ip), vehicle: water 166 % of control and 167 % of control
109 % of control and 241 % of control: dose: 8.0 mg/kg/injection, schedule: Q01DX009 (ip), vehicle: water

Cn1ccnc1Sc1ccnc(Sc2ccc([N+](=O)[O-])cc2[N+](=O)[O-])n1
inactive: dose: 50.0 mg/kg/injection, schedule: Q01DX009 (ip), vehicle: saline 108 % of control | dose: 100.0 mg/kg/injection, schedule: Q01DX009 (ip), vehicle: saline 96 % of control | dose: 200.0 mg/kg/injection, schedule: Q01DX009 (ip), vehicle: saline 87 % of control

CC(=O)N1C2C3CCC(C)(OC3(C)C)C21 (stereo not drawn)
inactive: dose: 50.0 mg/kg/injection, schedule: Q01DX005 (ip), vehicle: saline 107 % of control | dose: 100.0 mg/kg/injection, schedule: Q01DX005 (ip), vehicle: saline 102 % of control | dose: 200.0 mg/kg/injection, schedule: Q01DX005 (ip), vehicle: saline 110 % of control

CC1(C)COC(=O)/C1=C1\SC(=S)NC1=O
inactive: dose: 100.0 mg/kg/injection, schedule: Q04DX003 (ip), vehicle: saline 103 % of control | dose: 200.0 mg/kg/injection, schedule: Q04DX003 (ip), vehicle: saline 92 % of control

CC(C)=C1N(C(C)C)C(=C(C)C)N(C(C)C)C(=C(C)C)N1C(C)C
inactive: dose: 50.0 mg/kg/injection, schedule: Q01DX005 (ip), vehicle: Klucel (hydroxypropylcellulose) (HPC) 96 % of control | dose: 100.0 mg/kg/injection, schedule: Q01DX005 (ip), vehicle: Klucel (hydroxypropylcellulose) (HPC) 100 % of control | dose: 200.0 mg/kg/injection, schedule: Q01DX005 (ip), vehicle: Klucel (hydroxypropylcellulose) (HPC) 89 % of control

CCOC(=O)c1c(-c2ccccc2)oc2ccc(NS(=O)(=O)c3ccccc3)cc12
inactive: dose: 100.0 mg/kg/injection, schedule: Q01DX001 (ip), vehicle: saline with Tween-80 95 % of control | dose: 200.0 mg/kg/injection, schedule: Q01DX001 (ip), vehicle: saline with Tween-80 104 % of control | dose: 400.0 mg/kg/injection, schedule: Q01DX001 (ip), vehicle: saline with Tween-80 95 % of control
